Measured values taken from article PMC8459971, “Evaluation of the hepatotoxicity of the novel GPR40 (FFAR1) agonist CPL207280 in the rat and monkey” (PLoS ONE, 2021).
Where two headings read alike, the source gives them in different places.

System: HepaRG spheroids
Experiment: HepaRG 3D spheroids, cell and mitochondrial health markers, 14 days
Settings: for High Cell Loss (Cellular ATP) / High Cell Loss (DNA structure) / High Cell Loss (Glutathione content) / High Cell Loss (Mitochondrial mass) / High Cell Loss (Mitochondrial membrane potential) / High Cell Loss (Oxidative stress) / High Cell Loss (Spheroid count) / High Cell Loss (Spheroid size): timepoint 336; for AC50: Homo sapiens, HepaRG
[1] = HepaRG spheroid, TIMEPOINT 336, at the concentration (uM) given
[2] = HepaRG spheroid, TIMEPOINT 336, plotted value at the concentration given

Protocol: Hepatic spheroids were formed by seeding HepaRG™ cells into round-bottom ultra-low adhesion 96-well spheroid plates (Corning®) in 3D liver media with 0.5% DMSO, 100 U/mL penicillin, and 100 mg/L streptomycin. Cells were incubated at 37°C and 5% CO2 until spheroid formation and then compound-treated. The test compound was diluted in the vehicle, and serial dilutions were made in a 0.5% vehicle in HepaRG™ induction media. […] L-buthionine sulfoximine was used as positive control for GSH content, whereas rotenone was simultaneously used as a positive control for mitochondrial dysfunction and ATP content. At the end of the incubation period, the cells were loaded with the relevant dye for each cell health marker: DNA structure–Hoescht, GSH content–mBCL, ROS formation–DHE, mitochondrial dysfunction–MitoTracker, and cellular ATP content–CellTiter-Glo®, Promega. The plate was then scanned using an automated confocal fluorescent cellular imager, ArrayScan® XTI (Thermo Scientific Cellomics) at 37°C and 5% CO2. Further, the cellular ATP content was measured using CellTiter-Glo® (Promega, USA).

CCCCS(=N)(=O)CC[C@H](N)C(=O)O (stereo partly drawn) [L-buthionine-sulfoximine]
High Cell Loss (Cellular ATP) (CONC 0.4 uM, HepaRG spheroid): N
High Cell Loss (DNA structure) (CONC 0.4 uM, HepaRG spheroid): N
High Cell Loss (Glutathione content) (CONC 0.4 uM, HepaRG spheroid): N
High Cell Loss (Mitochondrial mass) (CONC 0.4 uM, HepaRG spheroid): N
High Cell Loss (Mitochondrial membrane potential) (CONC 0.4 uM, HepaRG spheroid): N
High Cell Loss (Oxidative stress) (CONC 0.4 uM, HepaRG spheroid): N
High Cell Loss (Spheroid count) (CONC 0.4 uM, HepaRG spheroid): N
High Cell Loss (Spheroid size) (CONC 0.4 uM, HepaRG spheroid): N
Cellular ATP Mean Plotted Value (CONC 0.4 uM, TIMEPOINT 336): 1.06
DNA structure Mean Plotted Value (CONC 0.4 uM, TIMEPOINT 336): 1
Glutathione content Mean Plotted Value (CONC 0.4 uM, TIMEPOINT 336): 0.883
Mitochondrial mass Mean Plotted Value (CONC 0.4 uM, TIMEPOINT 336): 1.03
Mitochondrial membrane potential Mean Plotted Value (CONC 0.4 uM, TIMEPOINT 336): 0.945
Oxidative stress Mean Plotted Value (CONC 0.4 uM, TIMEPOINT 336): 1.02
Spheroid count Mean Plotted Value (CONC 0.4 uM, TIMEPOINT 336): 1
Spheroid size Mean Plotted Value (CONC 0.4 uM, TIMEPOINT 336): 0.995
High Cell Loss (Cellular ATP) (CONC 1 uM, HepaRG spheroid): N
High Cell Loss (DNA structure) (CONC 1 uM, HepaRG spheroid): N
High Cell Loss (Glutathione content) (CONC 1 uM, HepaRG spheroid): N
High Cell Loss (Mitochondrial mass) (CONC 1 uM, HepaRG spheroid): N
High Cell Loss (Mitochondrial membrane potential) (CONC 1 uM, HepaRG spheroid): N
High Cell Loss (Oxidative stress) (CONC 1 uM, HepaRG spheroid): N
High Cell Loss (Spheroid count) (CONC 1 uM, HepaRG spheroid): N
High Cell Loss (Spheroid size) (CONC 1 uM, HepaRG spheroid): N
Cellular ATP Mean Plotted Value (CONC 1 uM, TIMEPOINT 336): 1.05
DNA structure Mean Plotted Value (CONC 1 uM, TIMEPOINT 336): 1.1
Glutathione content Mean Plotted Value (CONC 1 uM, TIMEPOINT 336): 0.886
Mitochondrial mass Mean Plotted Value (CONC 1 uM, TIMEPOINT 336): 1.14
Mitochondrial membrane potential Mean Plotted Value (CONC 1 uM, TIMEPOINT 336): 1
Oxidative stress Mean Plotted Value (CONC 1 uM, TIMEPOINT 336): 0.984
Spheroid count Mean Plotted Value (CONC 1 uM, TIMEPOINT 336): 1
Spheroid size Mean Plotted Value (CONC 1 uM, TIMEPOINT 336): 1.06
High Cell Loss (Cellular ATP) (CONC 4 uM, HepaRG spheroid): N
High Cell Loss (DNA structure) (CONC 4 uM, HepaRG spheroid): N
High Cell Loss (Glutathione content) (CONC 4 uM, HepaRG spheroid): N
High Cell Loss (Mitochondrial mass) (CONC 4 uM, HepaRG spheroid): N
High Cell Loss (Mitochondrial membrane potential) (CONC 4 uM, HepaRG spheroid): N
High Cell Loss (Oxidative stress) (CONC 4 uM, HepaRG spheroid): N
High Cell Loss (Spheroid count) (CONC 4 uM, HepaRG spheroid): N
High Cell Loss (Spheroid size) (CONC 4 uM, HepaRG spheroid): N
Cellular ATP Mean Plotted Value (CONC 4 uM, TIMEPOINT 336): 0.856
DNA structure Mean Plotted Value (CONC 4 uM, TIMEPOINT 336): 0.816
Glutathione content Mean Plotted Value (CONC 4 uM, TIMEPOINT 336): 0.715
Mitochondrial mass Mean Plotted Value (CONC 4 uM, TIMEPOINT 336): 1.03
Mitochondrial membrane potential Mean Plotted Value (CONC 4 uM, TIMEPOINT 336): 0.861
Oxidative stress Mean Plotted Value (CONC 4 uM, TIMEPOINT 336): 1
Spheroid count Mean Plotted Value (CONC 4 uM, TIMEPOINT 336): 1
Spheroid size Mean Plotted Value (CONC 4 uM, TIMEPOINT 336): 0.997
High Cell Loss (Cellular ATP) (CONC 10 uM, HepaRG spheroid): N
High Cell Loss (DNA structure) (CONC 10 uM, HepaRG spheroid): N
High Cell Loss (Glutathione content) (CONC 10 uM, HepaRG spheroid): N
High Cell Loss (Mitochondrial mass) (CONC 10 uM, HepaRG spheroid): N
High Cell Loss (Mitochondrial membrane potential) (CONC 10 uM, HepaRG spheroid): N
High Cell Loss (Oxidative stress) (CONC 10 uM, HepaRG spheroid): N
High Cell Loss (Spheroid count) (CONC 10 uM, HepaRG spheroid): N
High Cell Loss (Spheroid size) (CONC 10 uM, HepaRG spheroid): N
Cellular ATP Mean Plotted Value (CONC 10 uM, TIMEPOINT 336): 0.697
DNA structure Mean Plotted Value (CONC 10 uM, TIMEPOINT 336): 1.13
Glutathione content Mean Plotted Value (CONC 10 uM, TIMEPOINT 336): 0.689
Mitochondrial mass Mean Plotted Value (CONC 10 uM, TIMEPOINT 336): 0.979
Mitochondrial membrane potential Mean Plotted Value (CONC 10 uM, TIMEPOINT 336): 0.943
Oxidative stress Mean Plotted Value (CONC 10 uM, TIMEPOINT 336): 1.04
Spheroid count Mean Plotted Value (CONC 10 uM, TIMEPOINT 336): 1
Spheroid size Mean Plotted Value (CONC 10 uM, TIMEPOINT 336): 0.951
High Cell Loss (Cellular ATP) (CONC 40 uM, HepaRG spheroid): N
High Cell Loss (DNA structure) (CONC 40 uM, HepaRG spheroid): N
High Cell Loss (Glutathione content) (CONC 40 uM, HepaRG spheroid): N
High Cell Loss (Mitochondrial mass) (CONC 40 uM, HepaRG spheroid): N
High Cell Loss (Mitochondrial membrane potential) (CONC 40 uM, HepaRG spheroid): N
High Cell Loss (Oxidative stress) (CONC 40 uM, HepaRG spheroid): N
High Cell Loss (Spheroid count) (CONC 40 uM, HepaRG spheroid): N
High Cell Loss (Spheroid size) (CONC 40 uM, HepaRG spheroid): N
Cellular ATP Mean Plotted Value (CONC 40 uM, TIMEPOINT 336): 0.216
DNA structure Mean Plotted Value (CONC 40 uM, TIMEPOINT 336): 1.18
Glutathione content Mean Plotted Value (CONC 40 uM, TIMEPOINT 336): 0.15
Mitochondrial mass Mean Plotted Value (CONC 40 uM, TIMEPOINT 336): 1.05
Mitochondrial membrane potential Mean Plotted Value (CONC 40 uM, TIMEPOINT 336): 0.972
Oxidative stress Mean Plotted Value (CONC 40 uM, TIMEPOINT 336): 1.22
Spheroid count Mean Plotted Value (CONC 40 uM, TIMEPOINT 336): 1
Spheroid size Mean Plotted Value (CONC 40 uM, TIMEPOINT 336): 0.955
High Cell Loss (Cellular ATP) (CONC 100 uM, HepaRG spheroid): N
High Cell Loss (DNA structure) (CONC 100 uM, HepaRG spheroid): N
High Cell Loss (Glutathione content) (CONC 100 uM, HepaRG spheroid): N
High Cell Loss (Mitochondrial mass) (CONC 100 uM, HepaRG spheroid): N
High Cell Loss (Mitochondrial membrane potential) (CONC 100 uM, HepaRG spheroid): N
High Cell Loss (Oxidative stress) (CONC 100 uM, HepaRG spheroid): N
High Cell Loss (Spheroid count) (CONC 100 uM, HepaRG spheroid): N
High Cell Loss (Spheroid size) (CONC 100 uM, HepaRG spheroid): N
Cellular ATP Mean Plotted Value (CONC 100 uM, TIMEPOINT 336): 0.019
DNA structure Mean Plotted Value (CONC 100 uM, TIMEPOINT 336): 1.13
Glutathione content Mean Plotted Value (CONC 100 uM, TIMEPOINT 336): 0.119
Mitochondrial mass Mean Plotted Value (CONC 100 uM, TIMEPOINT 336): 1.03
Mitochondrial membrane potential Mean Plotted Value (CONC 100 uM, TIMEPOINT 336): 0.807
Oxidative stress Mean Plotted Value (CONC 100 uM, TIMEPOINT 336): 1.13
Spheroid count Mean Plotted Value (CONC 100 uM, TIMEPOINT 336): 1
Spheroid size Mean Plotted Value (CONC 100 uM, TIMEPOINT 336): 0.975
High Cell Loss (Cellular ATP) (CONC 400 uM, HepaRG spheroid): N
High Cell Loss (DNA structure) (CONC 400 uM, HepaRG spheroid): N
High Cell Loss (Glutathione content) (CONC 400 uM, HepaRG spheroid): N
High Cell Loss (Mitochondrial mass) (CONC 400 uM, HepaRG spheroid): N
High Cell Loss (Mitochondrial membrane potential) (CONC 400 uM, HepaRG spheroid): N
High Cell Loss (Oxidative stress) (CONC 400 uM, HepaRG spheroid): N
High Cell Loss (Spheroid count) (CONC 400 uM, HepaRG spheroid): N
High Cell Loss (Spheroid size) (CONC 400 uM, HepaRG spheroid): N
Cellular ATP Mean Plotted Value (CONC 400 uM, TIMEPOINT 336): 0.00038
DNA structure Mean Plotted Value (CONC 400 uM, TIMEPOINT 336): 0.279
Glutathione content Mean Plotted Value (CONC 400 uM, TIMEPOINT 336): 0.0382
Mitochondrial mass Mean Plotted Value (CONC 400 uM, TIMEPOINT 336): 0.963
Mitochondrial membrane potential Mean Plotted Value (CONC 400 uM, TIMEPOINT 336): 0.452
Oxidative stress Mean Plotted Value (CONC 400 uM, TIMEPOINT 336): 0.937
Spheroid count Mean Plotted Value (CONC 400 uM, TIMEPOINT 336): 1
Spheroid size Mean Plotted Value (CONC 400 uM, TIMEPOINT 336): 0.965
High Cell Loss (Cellular ATP) (CONC 1000 uM, HepaRG spheroid): N
High Cell Loss (DNA structure) (CONC 1000 uM, HepaRG spheroid): N
High Cell Loss (Glutathione content) (CONC 1000 uM, HepaRG spheroid): N
High Cell Loss (Mitochondrial mass) (CONC 1000 uM, HepaRG spheroid): N
High Cell Loss (Mitochondrial membrane potential) (CONC 1000 uM, HepaRG spheroid): N
High Cell Loss (Oxidative stress) (CONC 1000 uM, HepaRG spheroid): N
High Cell Loss (Spheroid count) (CONC 1000 uM, HepaRG spheroid): N
High Cell Loss (Spheroid size) (CONC 1000 uM, HepaRG spheroid): N
Cellular ATP Mean Plotted Value (CONC 1000 uM, TIMEPOINT 336): 0.000301
DNA structure Mean Plotted Value (CONC 1000 uM, TIMEPOINT 336): 0.123
Glutathione content Mean Plotted Value (CONC 1000 uM, TIMEPOINT 336): 0.0358
Mitochondrial mass Mean Plotted Value (CONC 1000 uM, TIMEPOINT 336): 0.999
Mitochondrial membrane potential Mean Plotted Value (CONC 1000 uM, TIMEPOINT 336): 0.412
Oxidative stress Mean Plotted Value (CONC 1000 uM, TIMEPOINT 336): 0.683
Spheroid count Mean Plotted Value (CONC 1000 uM, TIMEPOINT 336): 1
Spheroid size Mean Plotted Value (CONC 1000 uM, TIMEPOINT 336): 0.983
Cellular ATP MEC (HepaRG spheroid, TIMEPOINT 336): 6.84 µM
DNA structure MEC (HepaRG spheroid, TIMEPOINT 336): 222 µM
Glutathione content MEC (HepaRG spheroid, TIMEPOINT 336): 2.95 µM
Mitochondrial membrane potential MEC (HepaRG spheroid, TIMEPOINT 336): 177 µM
Oxidative stress MEC (HepaRG spheroid, TIMEPOINT 336): 658 (NS) uM
Cellular ATP MR (% @ concentration) [1]: 100%
DNA structure MR (% @ concentration) [1]: 89%
Glutathione content MR (% @ concentration) [1]: 96%
Mitochondrial membrane potential MR (% @ concentration) [1]: 58%
Oxidative stress MR (% @ concentration) [1]: 35%
Cellular ATP MR [2]: 0.000301
DNA structure MR [2]: 0.123
Glutathione content MR [2]: 0.0358
Mitochondrial membrane potential MR [2]: 0.412
Oxidative stress MR [2]: 0.683
AC50 (read-out: Cellular ATP AC50): 15.5 µM
AC50 (read-out: DNA structure AC50): 294 µM
AC50 (read-out: Glutathione content AC50): 16.2 µM
AC50 (read-out: Mitochondrial mass AC50): > 1000 µM
AC50 (read-out: Mitochondrial membrane potential AC50): 511 µM
AC50 (read-out: Oxidative stress AC50): > 1000 µM
AC50 (read-out: Spheroid count AC50): > 1000 µM
AC50 (read-out: Spheroid size AC50): > 1000 µM
